Consider four compounds from ChEMBL document CHEMBL1131946, “Synthesis and evaluation of backbone/amide-modified analogs of leualacin” (Bioorg Med Chem Lett, 1999).

Test [1] can be described thus: Inhibitory effect against U-46,619-induced platelet aggregation at a concentration of 1 uM. The format is functional.
The nature of test [2]: Inhibitory effect against arachidonic acid-induced platelet aggregation at a concentration of 100 uM. The class given is functional.
The species named for test [3] is Rattus norvegicus. The test can be described thus: vasodilatory effect for [Ca2+] antagonism in aortic arch isolated from WKY rats at a concentration of 0.01 uM. The format is functional, Pharyngeal arch artery.
The species named for test [4] is Rattus norvegicus. The test can be described thus: vasodilatory effect for [Ca2+] antagonism in aortic arch isolated from WKY rats at a concentration of 0.1 uM. The format is functional, Pharyngeal arch artery.
The species entered for test [5] is Rattus norvegicus. The test can be described thus: vasodilatory effect for [Ca2+] antagonism in aortic arch isolated from WKY rats at a concentration of 100 uM. The format is functional, Pharyngeal arch artery.
For test [6], the species on record is Rattus norvegicus. The test can be described thus: vasodilatory effect for [Ca2+] antagonism in aortic arch isolated from WKY rats at a concentration of 10 uM. The format is functional, Pharyngeal arch artery.
The species named for test [7] is Rattus norvegicus. The test can be described thus: vasodilatory effect for [Ca2+] antagonism in aortic arch isolated from WKY rats at a concentration of 1 uM. The class given is functional, Pharyngeal arch artery.
The nature of test [8]: Inhibitory effect against collagen-induced platelet aggregation at a concentration of 100 ug/mL. The class given is functional.
A short description of test [9]: Inhibitory effect against TXB2 formation in response to arachidonic acid-induced platelet aggregation at a concentration of 100 uM. The format is functional.
Test [10] can be described thus: Inhibitory effect against TXB2 formation in response to collagen-induced platelet aggregation at a concentration of 100 ug/mL. The format is functional.

Bounds are passed on as bounds.

For orientation: IC50 means the concentration at which inhibition is half-maximal. Read a high IC50 as lower potency. Turning to `CC(C)C[C@@H]1NC(=O)[C@@H](CC(C)C)OC(=O)CCN(C)C(=O)[C@H](Cc2ccccc2)N(C)C(=O)[C@H](CC(C)C)OC1=O`, the half-inhibitory concentration (IC50) in [1] is over 200 µM; in test [2], over 200 µM; in test [8], over 150 µM. The Vasodilatory rate was found to be 11.5% in the test listed under Rattus norvegicus [3]; 32.5% in the test filed under Rattus norvegicus [4]; 78% in the test listed under Rattus norvegicus [5]; 80.8% in the test listed under Rattus norvegicus [6]; 25.1% in the test filed under Rattus norvegicus [7].
Take `CC(C)C[C@@H]1NC(=O)[C@@H](CC(C)C)NC(=O)CCNC(=O)[C@H](Cc2ccccc2)N(C)C(=O)[C@H](CC(C)C)OC1=O`: the “Amount of TXB2 formation” value came out at 30.7 ng/mL in test [9] and 25.6 ng/mL in test [10]. The IC50 is 40 µM in test [1], 30 µM in test [2] and 10 µM in test [8]. The Vasodilatory rate is 29.3% in the test listed under Rattus norvegicus [3], 35% in the test filed under Rattus norvegicus [4] and 100% in the test filed under Rattus norvegicus [7].
As for `CC(C)C[C@@H]1NC(=O)[C@@H](CC(C)C)NC(=O)CCN(C)C(=O)[C@H](Cc2ccccc2)N(C)C(=O)[C@H](CC(C)C)OC1=O`, the 50% inhibitory concentration (IC50) in test [1] was over 200 µM; in [2] it was over 200 µM; in test [8], over 150 µM.
Consider `CC(C)C[C@@H]1NC(=O)[C@@H](CC(C)C)OC(=O)CCNC(=O)[C@H](Cc2ccccc2)N(C)C(=O)[C@H](CC(C)C)OC1=O`, for which the “Amount of TXB2 formation” value in [9] is 55.4 ng/mL; in test [10], 39.4 ng/mL. For the same compound, the IC50 was found to be 150 µM in test [1], 150 µM in test [2] and 50 µM in [8]. For the same compound, the Vasodilatory rate is listed as 66.5% in the test filed under Rattus norvegicus [5], 64.4% in the test filed under Rattus norvegicus [6] and 26.8% in the test listed under Rattus norvegicus [7].
